The values below come from patent US20160052937A1, “Tetrahydroimidazo[1,5-d][1,4]oxazepine compound” (Eisai R&D Management Co., Ltd., priority 2014, published 2016).

What is called IC50 is the point on the concentration scale where inhibition reaches its midpoint. Read a low IC50 as higher potency.

T1 sequence (Q14416 19-872): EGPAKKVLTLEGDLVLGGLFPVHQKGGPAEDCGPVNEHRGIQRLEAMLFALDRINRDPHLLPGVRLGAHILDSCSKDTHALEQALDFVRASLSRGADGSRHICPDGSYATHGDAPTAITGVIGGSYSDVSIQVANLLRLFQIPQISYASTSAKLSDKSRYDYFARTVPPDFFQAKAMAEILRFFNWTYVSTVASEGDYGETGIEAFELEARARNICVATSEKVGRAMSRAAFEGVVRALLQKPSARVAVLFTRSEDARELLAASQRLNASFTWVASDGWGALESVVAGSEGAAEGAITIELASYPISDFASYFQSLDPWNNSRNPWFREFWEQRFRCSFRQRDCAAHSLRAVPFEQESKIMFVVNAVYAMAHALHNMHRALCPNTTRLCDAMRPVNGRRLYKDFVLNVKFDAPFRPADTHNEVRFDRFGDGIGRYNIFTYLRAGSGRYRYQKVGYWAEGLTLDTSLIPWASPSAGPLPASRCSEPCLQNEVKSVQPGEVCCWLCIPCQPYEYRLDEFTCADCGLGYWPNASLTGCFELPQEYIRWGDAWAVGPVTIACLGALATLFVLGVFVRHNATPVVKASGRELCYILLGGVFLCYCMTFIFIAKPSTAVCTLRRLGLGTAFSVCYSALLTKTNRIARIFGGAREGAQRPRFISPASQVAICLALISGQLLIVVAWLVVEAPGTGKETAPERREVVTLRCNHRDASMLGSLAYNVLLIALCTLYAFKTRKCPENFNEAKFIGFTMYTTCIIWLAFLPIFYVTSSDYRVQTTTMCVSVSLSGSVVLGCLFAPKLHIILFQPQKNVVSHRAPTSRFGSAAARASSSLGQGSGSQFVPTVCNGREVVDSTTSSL

This experiment concerns the target T1, human metabotropic glutamate receptor 2 (mGluR2) (Homo sapiens, UniProt Q14416).
T1 construct: expressed in transfected cells; co-expressing human SLC1A3), cell membrane fraction
Put plainly: [35S]GTPγS binding assay (Affinity to mGluR2). Format: biochemical. Particulars: cell membrane fraction of HEK293 cells stably expressing human mGluR2; glutamic acid 10 μM. The protocol: (Preparation of Cell Membrane Fraction of HEK293 Cells Stably Expressing Human Metabotropic Glutamate Receptor 2 (mGluR2))
HEK293 cells stably expressing human mGluR2 and human glutamate transporter SLC1A3 were cultured in a Dulbecco's modified Eagle's medium with 10% fetal bovine serum (50 units/mL of penicillin, 50 μg/mL of streptomycin, 60 μg/mL of geneticin, 400 μg/mL of hygromycin B and 2 mM of glutamine) at 37° C. under 5% CO2. Confluent cell cultures were washed twice with PBS(−), and then scraped off with a cell scraper, and subjected to centrifugal separation at 4° C. and 1500 rpm for 5 minutes for collecting cells. The centrifuged sediment (cell pellet) was homogenized in a 20 mM HEPES buffer containing 10 mM EDTA (pH 7.4) by using sonicator and centrifuged at 4° C. and 1500×g for 30 minutes. The supernatant (soluble fraction) was subjected to the centrifugal separation at 4° C. and 40,000×g for 30 minutes, and thus, insoluble fraction was obtained. After additional centrifugally washing the obtained fraction with 20 mM HEPES buffer containing 10 mM EDTA (pH 7.4), the pellet was centrifugally suspended with a 20 mM HEPES buffer containing 0.1 mM EDTA, and the cell membrane fraction was obtained by the centrifugal separation at 4° C. and 40,000×g for 30 minutes. The thus obtained cell membrane fraction was suspended in a 20 mM HEPES buffer containing 0.1 mM EDTA in a protein concentration of 3 mg/mL, which was stored at −80° C.
([^35S]GTPγS binding assay)
The frozen cell membrane fraction prepared as described above was thawed before use, and the resultant was diluted with a buffer for a binding assay (final concentrations: 20 mM HEPES, 100 mM NaCl, 1 mM MgCl2, 3 μM GDP, 300 μg/mL saponin, 0.1% BSA). The compound of each example was added to a cell membrane fraction containing 1.8 to 3 μg/assay of membrane protein on a plate, followed by incubation at room temperature for 30 minutes. Thereafter, with glutamic acid (in a final concentration of 10 μM) added thereto, incubation was performed at room temperature for 15 minutes, and thereafter, [^35S]GTPγS (in a final concentration of 0.8 kBq) and 588 μg WGA-SPA beads were added thereto, followed by incubation at room temperature for 1 hour. After the incubation, the plate was subjected to the centrifugal separation at 2,500 rpm and room temperature, and then, membrane cell binding radioactivity was measured with a top count.
A [^35S]GTPγS binding amount obtained by performing the above-described reaction in the absence of glutamic acid was defined as nonspecific binding, and a difference from a [^35S]GTPγS binding amount obtained in the presence of glutamic acid was defined as specific binding. On the basis of ratios of inhibiting the specific binding at various concentrations of the compounds of the respective examples, inhibition curves were obtained. Concentrations of the compounds of the respective examples at which the specific [^35S]GTPγS binding amount was suppressed by 50% (IC50 values) were calculated on the basis of the inhibition curves and shown in Table 3.
(Binding of GTPγS marks nucleotide exchange on a G protein.)
Take `CC(C)NS(=O)(=O)c1ccc(-c2nc(-c3ccc(OCF)cc3)n3c2CCO[C@H](C)C3)cc1` [Example 4]: the 50% inhibitory concentration (IC50) amounted to 3.3 nM.

In turn, `C[C@@H]1Cn2c(-c3ccc(OCF)cc3)nc(-c3ccc(S(=O)(=O)NC(C)(C)C)cc3)c2CCO1` [Example 5] yielded an IC50 of 2.7 nM.

As for `CCOc1ccc(-c2nc(-c3ccc(S(=O)(=O)NC(C)C)cc3)c3n2C[C@@H](C)OCC3)cc1` [Example 6], the IC50 turned out to be 3.2 nM.

With `CCOc1ccc(-c2nc(-c3ccc(S(=O)(=O)NC(C)(C)C)cc3)c3n2C[C@@H](C)OCC3)cc1` [Example 7], the IC50 was 3.6 nM.

On to `C[C@@H]1Cn2c(-c3ccc(OC(F)F)cc3)nc(-c3ccc(S(=O)(=O)NC(C)(C)C)cc3)c2CCO1` [Example 9], for which the IC50 amounted to 2.7 nM.

Take `COc1ccc(-c2nc(-c3ccc(S(=O)(=O)NC(C)(C)C)cc3)c3n2C[C@@H](C)OCC3)cc1` [Example 10]: the IC50 is 1.8 nM.

In turn, `CC(C)NS(=O)(=O)c1ccc(-c2nc(-c3ccc(OC4COC4)cc3)n3c2CCOC(C)C3)cc1` (stereo not drawn) [Example 11] showed an IC50 of 7.1 nM. Compared with the last compound, the IC50 is about 3.9-fold higher.

The compound `CC(C)NS(=O)(=O)c1ccc(-c2nc(-c3ccc(OC(F)F)cc3)n3c2CCO[C@H](C)C3)cc1` [Example 12] returned an IC50 of 1.4 nM.

As for `C[C@@H]1Cn2c(-c3ccc(F)cc3)nc(-c3ccc(S(=O)(=O)NC(C)(C)C)cc3)c2CCO1` [Example 13], the half-maximal inhibitory concentration (IC50) was 4 nM. This IC50 is about 2.9-fold higher than that of the compound before.

Take `CNS(=O)(=O)c1ccc(-c2nc(-c3ccc(F)cc3)n3c2CCO[C@H](C)C3)cc1` [Example 14]: the IC50 was determined as 9.8 nM. This IC50 lies about 2.5-fold higher than the previous one.

`CCNS(=O)(=O)c1ccc(-c2nc(-c3ccc(F)cc3)n3c2CCO[C@H](C)C3)cc1` [Example 15] came in with an IC50 of 4.1 nM.

In the case of `C[C@@H]1Cn2c(-c3ccc(F)cc3)nc(-c3ccc(S(=O)(=O)NC4CC4)cc3)c2CCO1` [Example 16], the half-maximal inhibitory concentration (IC50) was 4.2 nM.

Compound `CC1Cn2c(-c3ccc(F)cc3)nc(-c3ccc(S(=O)(=O)NC4(C)CCC4)cc3)c2CCO1` (stereo not drawn) [Example 17] had an IC50 of 2.3 nM.

In turn, `C[C@@H]1Cn2c(-c3ccc(OCF)cc3)nc(-c3ccc(S(=O)(=O)NC4CC4)cc3)c2CCO1` [Example 18] showed an IC50 of 3.6 nM. Compared with the last compound, the IC50 is about 1.6-fold higher.

`C[C@@H]1Cn2c(-c3ccc(OCF)cc3)nc(-c3ccc(S(=O)(=O)NC4CCC4)cc3)c2CCO1` [Example 19] came in with a concentration for half-maximal inhibition (IC50) of 6.3 nM.

For `CNS(=O)(=O)c1ccc(-c2nc(-c3ccc(OCF)cc3)n3c2CCO[C@H](C)C3)cc1` [Example 20], the IC50 was 21.8 nM. Compared with the last compound, the IC50 is about 3.5-fold higher.

`CCNS(=O)(=O)c1ccc(-c2nc(-c3ccc(OCF)cc3)n3c2CCO[C@H](C)C3)cc1` [Example 21]: the IC50 was 11.2 nM. Against the preceding compound, the IC50 is about 1.9-fold lower.

The compound `CC1Cn2c(-c3ccc(OCF)cc3)nc(-c3ccc(S(=O)(=O)NC4(C)CCC4)cc3)c2CCO1` (stereo not drawn) [Example 22] came in with an IC50 of 3.1 nM. Against the preceding compound, the IC50 is about 3.6-fold lower.

Compound `C[C@@H]1Cn2c(-c3ccc(OC(F)F)cc3)nc(-c3ccc(S(=O)(=O)NC4CC4)cc3)c2CCO1` [Example 23] displayed an IC50 of 1.6 nM.

With `C[C@@H]1Cn2c(-c3ccc(OC(F)F)cc3)nc(-c3ccc(S(=O)(=O)NC4CCC4)cc3)c2CCO1` [Example 24], the IC50 was determined as 2.7 nM. This IC50 is about 1.7-fold higher than that of the compound before.

For `CNS(=O)(=O)c1ccc(-c2nc(-c3ccc(OC(F)F)cc3)n3c2CCO[C@H](C)C3)cc1` [Example 25], the IC50 stood at 3.1 nM.

Consider `CCNS(=O)(=O)c1ccc(-c2nc(-c3ccc(OC(F)F)cc3)n3c2CCO[C@H](C)C3)cc1` [Example 26], for which the 50% inhibitory concentration (IC50) was 3.7 nM.

Compound `CC1Cn2c(-c3ccc(OC(F)F)cc3)nc(-c3ccc(S(=O)(=O)NC4(C)CCC4)cc3)c2CCO1` (stereo not drawn) [Example 27] had an IC50 of 2.3 nM.

`COc1ccc(-c2nc(-c3ccc(S(=O)(=O)NC4CC4)cc3)c3n2C[C@@H](C)OCC3)cc1` [Example 28]: the IC50 was determined as 7.4 nM.

`CNS(=O)(=O)c1ccc(-c2nc(-c3ccc(OC)cc3)n3c2CCO[C@H](C)C3)cc1` [Example 29] returned an IC50 of 26.8 nM. This IC50 is about 3.6-fold higher than that of the compound before.

The compound `CCNS(=O)(=O)c1ccc(-c2nc(-c3ccc(OC)cc3)n3c2CCO[C@H](C)C3)cc1` [Example 30] came in with a concentration for half-maximal inhibition (IC50) of 7.4 nM.

The compound `COc1ccc(-c2nc(-c3ccc(S(=O)(=O)NC4(C)CCC4)cc3)c3n2CC(C)OCC3)cc1` (stereo not drawn) [Example 31] gave an IC50 of 3 nM.
